This series is described as follows: Intravenous pharmacokinetic study in rats (tail vein injection). Format: in vivo, rat. Conditions: FIG. 10, versus isonicotinate analogue.

On to `CCOC(=O)c1ccc[n+](COC(=O)N[C@@H](C)Cc2ccccc2)c1` [AMP-CO2CH2-nicotinate(Et), d-amphetamine-CO2CH2-nicotinate ethyl ester], for which the “exposure to d-amphetamine after intravenous administration compared to AMP-CO2CH2-isonicotinate(Et)” value is recorded as “decreases exposure to d-amphetamine”.

The values are drawn from patent publication US12091386B2, “D-amphetamine compounds, compositions, and processes for making and using the same” (Zevra Therapeutics, Inc., priority 2018, dated 2024).
